From ChEMBL document CHEMBL4673364, “Synthesis and cytotoxic activity of new 7-acetoxy-12-amino-14-deoxy andrographolide analogues” (Bioorg Med Chem Lett, 2021) come the findings set out here.

Test [1] in a line: Cytotoxicity against human K055 cells assessed as reduction in cell viability by SRB assay. The class given is functional, cell-based. In general terms: Sulforhodamine B stains cellular protein and so reports cell mass.
Test [2] in a line: Cytotoxicity against rat ASK cells assessed as reduction in cell viability by SRB assay. The format is functional, cell-based.
Test [3] can be described thus: Cytotoxicity against human P388 cells assessed as reduction in cell viability by SRB assay. The format is functional, cell-based.
The test system of test [4] is MCF7. Kind of test: Cytotoxicity against human MCF7 cells assessed as reduction in cell viability by SRB assay. The class given is functional, cell-based.
Test [5] is described as follows: Cytotoxicity against human K213 cells assessed as reduction in cell viability by SRB assay. The class given is functional, cell-based.
The subject of test [6] is KB. Kind of test: Cytotoxicity against human KB cells assessed as reduction in cell viability by SRB assay. The class given is functional, cell-based.
The subject of test [7] is A549. Kind of test: Cytotoxicity against human A549 cells assessed as reduction in cell viability by SRB assay. The class given is functional, cell-based.
The test system of test [8] is HT-29. Kind of test: Cytotoxicity against human HT-29 cells assessed as reduction in cell viability by SRB assay. The class given is functional, cell-based.
Test [9] is described as follows: Potency index, ratio of andrographolide IC50 to test compound IC50 for cytotoxicity against […] cells. The class given is functional.
The subject of test [10] is KB. The test is described as follows: Potency index, ratio of andrographolide IC50 to test compound IC50 for cytotoxicity against human KB cells. The format is functional.
A short description of test [11]: Potency index, ratio of andrographolide IC50 to test compound IC50 for cytotoxicity against human K055 cells. The class given is functional.
A short description of test [12]: Potency index, ratio of andrographolide IC50 to test compound IC50 for cytotoxicity against human K213 cells. The format is functional.
Test [13] has as its system MCF7. The test is described as follows: Potency index, ratio of andrographolide IC50 to test compound IC50 for cytotoxicity against human MCF7 cells. The format is functional.

In the case of `C=C1CC[C@@H]2[C@](C)(CO[Si](C)(C)C(C)(C)C)[C@H](OC(C)=O)CC[C@@]2(C)[C@@H]1C/C=C1/C(=O)OC[C@H]1OC(C)=O`, the half-maximal inhibitory concentration (IC50) (in general, the concentration at which inhibition is half-maximal) in [1] was 44.3 µM; in [2] it was 2.41 µM; in [3], 0.3 µM; in test [4], 4.84 µM; in test [5], 38.7 µM; in test [6] it was 5.05 µM. In addition, the IC50 was 3.99 µM in test [7] and 4.69 µM in [8].

For `C=C1[C@@H](OC(C)=O)C[C@@H]2[C@](C)(CO[Si](C)(C)C(C)(C)C)[C@H](OC(C)=O)CC[C@@]2(C)[C@@H]1C[C@@H](Nc1ccccc1)C1=CCOC1=O`, in test [9], the “Ratio IC50” value is recorded as 9. The IC50 in test [1] stood at 4.43 µM; in test [2] it was 4.96 µM; in test [3] it was 4.4 µM; in test [4], 4.84 µM; in test [5], 5.7 µM; in [6], 5.71 µM. For the same molecule, the values for the IC50 in test [7] and in [8] were 4.5 µM and 4.05 µM, respectively.

In the case of `C=C1[C@@H](OC(C)=O)C[C@@H]2[C@](C)(CO[Si](C)(C)C(C)(C)C)[C@H](OC(C)=O)CC[C@@]2(C)[C@@H]1C[C@@H](Nc1ccc(OC)c(OC)c1)C1=CCOC1=O`, the IC50 in test [1] stood at 5.73 µM; in [2] it was 4.95 µM; in [3], 4.53 µM; in test [4] it was 4.31 µM; in test [5] it was 5.15 µM; in test [6] it was 5.8 µM. In addition, the IC50 in test [7] amounted to 4.87 µM; in [8] it was 5.33 µM.

With `C=C1[C@@H](OC(C)=O)C[C@@H]2[C@](C)(CO[Si](C)(C)C(C)(C)C)[C@H](OC(C)=O)CC[C@@]2(C)[C@@H]1C/C=C1/C(=O)OC[C@H]1OC(C)=O`, the IC50 in test [1] worked out at 4.43 µM; in test [2], 4.11 µM; in test [3], 0.43 µM; in test [4] it was 4.54 µM; in test [5] it was 4.81 µM; in [6], 5.02 µM. For the same molecule, the IC50 was 4.64 µM in test [7] and 4.94 µM in [8]. Besides, the “Ratio IC50” value in test [10], in test [11] and in test [12] was 8 each time.

For the molecule `C=C1[C@@H](OC(C)=O)C[C@@H]2[C@](C)(CO[Si](C)(C)C(C)(C)C)[C@H](OC(C)=O)CC[C@@]2(C)[C@@H]1C[C@@H](Nc1ccc(C(=O)O)cc1)C1=CCOC1=O`, the IC50 in test [1] was determined as 4.88 µM; in test [2] it was 4.31 µM; in test [3], 4.18 µM; in test [4], 3.99 µM; in test [5] it was 6.75 µM; in test [6], 5.54 µM. The IC50 in test [7] was found to be 4.21 µM; in [8], 4.63 µM. The “Ratio IC50” value in [13] came to 7.

As for `C=C1[C@@H](OC(C)=O)C[C@@H]2[C@](C)(CO[Si](C)(C)C(C)(C)C)[C@H](OC(C)=O)CC[C@@]2(C)[C@@H]1C[C@@H](Nc1ccc(F)cc1)C1=CCOC1=O`, the IC50 in test [1] is 5.43 µM; in [2] it was 4.63 µM; in [3] it was 4 µM; in test [4], 4.34 µM; in [5], 5.25 µM; in [6] it was 5.09 µM. The concentration for half-maximal inhibition (IC50) was 4.55 µM in [7] and 4.94 µM in test [8]. Further, the “Ratio IC50” value in [13] came out at 7.

Regarding `C=C1[C@@H](OC(C)=O)C[C@@H]2[C@](C)(CO[Si](C)(C)C(C)(C)C)[C@H](OC(C)=O)CC[C@@]2(C)[C@@H]1C[C@@H](Nc1ccc(O)cc1)C1=CCOC1=O`, the IC50 in test [1] is 5.95 µM; in test [2], 5 µM; in test [3], 5.03 µM; in test [4] it was 5.22 µM; in test [5] it was 9.25 µM; in [6] it was 8.35 µM. In addition, the IC50 in [7] was determined as 5.09 µM; in test [8], 6.14 µM.

Turning to `C=C1[C@@H](C/C=C2/C(=O)OC[C@H]2OC(C)=O)[C@]2(C)CC[C@@H](OC(C)=O)[C@@](C)(CO[Si](C)(C)C(C)(C)C)[C@H]2C[C@@H]1O`, the IC50 came to 19.9 µM in test [1]; 5.97 µM in test [2]; 0.9 µM in [3]; 6.96 µM in test [4]; 24 µM in test [5]; 9.79 µM in [6]. For the same molecule, the values for the 50% inhibitory concentration (IC50) in [7] and in [8] were 6.85 µM and 9.31 µM, respectively.

`C=C1[C@@H](OC(C)=O)C[C@@H]2[C@](C)(CO[Si](C)(C)C(C)(C)C)[C@H](OC(C)=O)CC[C@@]2(C)[C@@H]1C[C@@H](Nc1ccc(OC)cc1)C1=CCOC1=O`: the IC50 was 5.6 µM in test [1]; 4.56 µM in test [2]; 4.03 µM in [3]; 4.28 µM in [4]; 5.2 µM in test [5]; 5.63 µM in test [6]. Besides, the IC50 stood at 4.81 µM in test [7] and 5.37 µM in test [8].

For `C=C1[C@@H](OC(C)=O)C[C@@H]2[C@](C)(CO[Si](C)(C)C(C)(C)C)[C@H](OC(C)=O)CC[C@@]2(C)[C@@H]1C[C@@H](Nc1cccc(OC)c1)C1=CCOC1=O`, the IC50 in [1] came to 44 µM; in test [2] it was 39.7 µM; in test [3] it was 27.8 µM; in test [4], 28.1 µM; in [5], 40.1 µM; in test [6] it was 45.2 µM. The IC50 in test [7] is 17.2 µM; in [8], > 50 µM.

Turning to `C=C1[C@@H](OC(C)=O)C[C@@H]2[C@](C)(CO[Si](C)(C)C(C)(C)C)[C@H](OC(C)=O)CC[C@@]2(C)[C@@H]1C[C@@H](Nc1ccccc1F)C1=CCOC1=O`, the IC50 in test [1] was determined as 5.19 µM; in [2], 3.69 µM; in test [3], 3.14 µM; in test [4], 2.93 µM; in test [5], 5.45 µM; in test [6] it was 4.74 µM. The concentration for half-maximal inhibition (IC50) stood at 3.19 µM in [7] and 3.71 µM in test [8]. In test [13], the “Ratio IC50” value came out at 7.

As to `C=C1[C@@H](OC(C)=O)C[C@@H]2[C@](C)(CO[Si](C)(C)C(C)(C)C)[C@H](OC(C)=O)CC[C@@]2(C)[C@@H]1C[C@@H](Nc1ccc(Br)cc1)C1=CCOC1=O`, the IC50 in test [1] turned out to be 5.34 µM; in test [2] it was 4.84 µM; in test [3], 4.19 µM; in test [4] it was 3.92 µM; in [5], 5.44 µM; in [6] it was 5.23 µM. Besides, the IC50 stood at 4.15 µM in [7] and 4.59 µM in test [8]. The “Ratio IC50” value in test [13] was 7.

With `C=C1[C@@H](OC(C)=O)C[C@@H]2[C@](C)(CO[Si](C)(C)C(C)(C)C)[C@H](OC(C)=O)CC[C@@]2(C)[C@@H]1C[C@@H](Nc1ccccc1C(=O)O)C1=CCOC1=O`, the IC50 is 5.64 µM in test [1]; 4.31 µM in test [2]; 4.31 µM in test [3]; 4.46 µM in test [4]; 5.91 µM in [5]; 6.05 µM in test [6]. Also, the IC50 was determined as 4.89 µM in test [7] and 5.34 µM in test [8]. In test [13], the “Ratio IC50” value worked out at 7.

For the molecule `C=C1[C@@H](OC(C)=O)C[C@@H]2[C@](C)(CO[Si](C)(C)C(C)(C)C)[C@H](OC(C)=O)CC[C@@]2(C)[C@@H]1C[C@@H](Nc1cccc(F)c1)C1=CCOC1=O`, the IC50 in test [1] is 5.41 µM; in test [2], 3.7 µM; in test [3], 2.81 µM; in test [4], 3.82 µM; in test [5], 5.28 µM; in test [6], 4.56 µM. For the same molecule, the IC50 is 4.06 µM in test [7] and 4.52 µM in test [8]. Besides, in test [13], the “Ratio IC50” value was found to be 7.

Turning to `C=C1CC[C@@H]2[C@](C)(CO)[C@H](O)CC[C@@]2(C)[C@@H]1C/C=C1/C(=O)OC[C@H]1O` [ANDROGRAPHOLIDE], the IC50 worked out at 30.2 µM in test [1]; 45.4 µM in test [2]; 6.91 µM in [3]; 29.1 µM in test [4]; 33.9 µM in test [5]; 41.5 µM in test [6]. Further, the figures for the concentration for half-maximal inhibition (IC50) in [7] and in test [8] were 12.2 µM and 10.8 µM, respectively.

For the molecule `Cc1c2ccncc2c(C)c2c1[nH]c1ccccc12` [ELLIPTECINE], the IC50 worked out at 2.04 µM in test [1]; 2.42 µM in [2]; 1.87 µM in test [3]; 2.18 µM in test [4]; 2.11 µM in [5]; 2.2 µM in test [6]. The IC50 in test [7] was found to be 2.13 µM; in [8], 2.59 µM.
